Calls of active or inactive are those of the source.

One may read the CC50 as the concentration that lowers cell viability or growth by half. What is called AC50 is the midpoint of the concentration-response curve, whichever way the signal moves.

Test [1] deals with Envelope glycoprotein gp160 (Human immunodeficiency virus 1, UniProt Q6QLK5). Description: inhibitors of HIV fusion peptide binding, primary screen, biochemical, uHTS, fluorescence dequenching (AID 1986).
For test [2], the system named is Vero. Description: Vero cell cytotoxicity, cytotoxicity control for flavivirus capping enzyme inhibitors (AID 588742). The settings on record: Chlorocebus sabaeus. In kind it is functional.
The target of test [3] is Genome polyprotein (dengue virus type 2, UniProt P29990). Description: Dengue-2 NS5 methyltransferase inhibitors, primary screen, biochemical, confirmation dose response (AID 588689). The class given is functional.
Test [4] has as its target T1, Carboxy-terminal domain RNA polymerase II polypeptide A small phosphatase 1 (Homo sapiens, UniProt Q9GZU7).
T1 sequence (Q9GZU7 whole entry): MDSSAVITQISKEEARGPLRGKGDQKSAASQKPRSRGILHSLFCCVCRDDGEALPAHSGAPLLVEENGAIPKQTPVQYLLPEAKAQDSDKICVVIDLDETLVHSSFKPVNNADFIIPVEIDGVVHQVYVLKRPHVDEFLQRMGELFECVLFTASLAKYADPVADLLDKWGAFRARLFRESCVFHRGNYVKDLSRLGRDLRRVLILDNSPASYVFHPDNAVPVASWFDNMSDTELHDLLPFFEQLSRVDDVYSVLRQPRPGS
The experiment in a line: inhibitors of CTDSP1, concentration-response testing, biochemical assay, absorbance-based, actives from ultra-high-throughput screening (AID 540297). In kind it is functional.

Test [5] addresses T2, Low molecular weight phosphotyrosine protein phosphatase (Homo sapiens, UniProt P24666).
T2 sequence (P24666 whole entry): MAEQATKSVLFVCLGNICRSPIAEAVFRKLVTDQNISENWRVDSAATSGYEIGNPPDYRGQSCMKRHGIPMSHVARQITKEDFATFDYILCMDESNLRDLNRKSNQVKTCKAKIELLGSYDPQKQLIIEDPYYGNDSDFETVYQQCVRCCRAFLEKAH
The class given is functional. The settings on record: read-out: IC50_Mean.

Test [6] addresses T2, Low molecular weight phosphotyrosine protein phosphatase. In kind it is functional. The settings on record: read-out: IC50_Mean. The source holds these as a separate data set.
Test [7] deals with T3, Tyrosine-protein phosphatase non-receptor type 22 (Homo sapiens, UniProt Q9Y2R2).
T3 sequence (Q9Y2R2 whole entry): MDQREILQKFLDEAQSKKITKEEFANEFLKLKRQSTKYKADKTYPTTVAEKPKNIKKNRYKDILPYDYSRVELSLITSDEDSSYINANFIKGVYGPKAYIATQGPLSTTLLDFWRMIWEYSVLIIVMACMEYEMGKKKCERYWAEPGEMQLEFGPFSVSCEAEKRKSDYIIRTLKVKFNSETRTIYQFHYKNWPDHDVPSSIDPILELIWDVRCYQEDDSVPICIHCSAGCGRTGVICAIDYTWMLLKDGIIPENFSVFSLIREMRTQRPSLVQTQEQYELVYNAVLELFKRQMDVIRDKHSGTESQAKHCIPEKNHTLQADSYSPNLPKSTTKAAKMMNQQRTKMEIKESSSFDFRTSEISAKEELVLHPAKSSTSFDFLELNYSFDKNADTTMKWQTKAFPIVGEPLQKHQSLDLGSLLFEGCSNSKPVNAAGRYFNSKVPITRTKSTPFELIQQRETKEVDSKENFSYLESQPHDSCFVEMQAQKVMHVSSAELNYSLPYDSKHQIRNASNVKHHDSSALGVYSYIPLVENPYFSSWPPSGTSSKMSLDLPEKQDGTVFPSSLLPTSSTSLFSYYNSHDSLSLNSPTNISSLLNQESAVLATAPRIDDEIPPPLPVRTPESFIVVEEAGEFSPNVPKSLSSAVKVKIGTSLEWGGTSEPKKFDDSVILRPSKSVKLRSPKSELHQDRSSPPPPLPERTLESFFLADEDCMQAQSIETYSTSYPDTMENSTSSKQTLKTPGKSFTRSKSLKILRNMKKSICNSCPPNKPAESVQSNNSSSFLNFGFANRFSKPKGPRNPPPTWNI
The experiment in a line: LYP phosphatase inhibition for selectivity, dose response, selectivity assay for LMPTP inhibitor project, biochemical, fluorescence, LYP catalytic domain (AID 652006). To be noted: read-out: IC50_Mean. The class given is functional.

Test [8] is described as follows: cells. In kind it is functional, cell-based.
Test [9] can be described thus: cells. In kind it is functional, cell-based. This is another data set of the same source.
Test [10] addresses ORF 73 (Human herpesvirus 8, UniProt O40947). The experiment in a line: inhibitors of C-LANA binding to LBS DNA, dose response, biochemical, fluorescence polarization, cherry-picked samples (AID 504725).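 Note: fluorescence polarization of a labeled DNA duplex reporting LANA DNA binding; potency is for inhibitors that block LANA binding to the DNA.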 On the set-up: species or system Human gammaherpesvirus 8.
Test [11] in a line: cytotoxicity in HEK-293T cells, dose response, cytotoxicity control for TCR NF-kB inhibitor project, luminescence, T-cell screen hits (AID 489026).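 Note: cells exposed to compound about 14 hours before the viability readout.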 In kind it is functional, cell-based.
The target of test [12] is T4, Corticotropin-releasing factor receptor 2/Corticotropin-releasing factor-binding protein (Homo sapiens, UniProt P24387+Q13324).
T4 sequence (Q13324 whole entry): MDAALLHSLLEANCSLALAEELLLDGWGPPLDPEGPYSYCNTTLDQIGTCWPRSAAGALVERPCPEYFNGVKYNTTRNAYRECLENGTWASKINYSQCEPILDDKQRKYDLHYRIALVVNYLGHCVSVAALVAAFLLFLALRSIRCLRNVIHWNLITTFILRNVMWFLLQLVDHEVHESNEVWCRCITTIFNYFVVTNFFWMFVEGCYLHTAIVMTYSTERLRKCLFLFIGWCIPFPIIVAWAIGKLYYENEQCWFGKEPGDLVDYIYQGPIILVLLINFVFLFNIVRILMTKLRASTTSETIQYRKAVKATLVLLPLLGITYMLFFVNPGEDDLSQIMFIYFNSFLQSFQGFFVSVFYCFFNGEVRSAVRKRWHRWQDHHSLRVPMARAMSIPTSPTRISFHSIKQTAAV
T4 sequence (P24387 whole entry): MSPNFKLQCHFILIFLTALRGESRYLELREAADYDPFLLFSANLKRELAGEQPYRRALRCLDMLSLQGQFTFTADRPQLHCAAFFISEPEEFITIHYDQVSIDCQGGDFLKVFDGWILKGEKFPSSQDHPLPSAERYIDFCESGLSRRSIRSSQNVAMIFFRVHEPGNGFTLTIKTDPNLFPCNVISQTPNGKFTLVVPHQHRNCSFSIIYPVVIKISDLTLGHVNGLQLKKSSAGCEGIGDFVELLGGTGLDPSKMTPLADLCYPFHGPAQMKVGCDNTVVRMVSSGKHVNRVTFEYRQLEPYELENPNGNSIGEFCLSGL
The experiment in a line: activators of CRF receptor 2 with binding protein – uHTS hits, confirmation (AID 602473). To be noted: read-out: EC50_Mean. The class given is functional.

In test [13] the target is Metabotropic glutamate receptor 4 (Rattus norvegicus, UniProt P31423). Description: Modulation of the Metabotropic Glutamate Receptor mGluR4: Rat PAM Potency. [Related pubchem assays (depositor defined):AID2437, AID2807]. The class given is functional.
In test [14] the target is Wee1-like protein kinase (Homo sapiens, UniProt P30291). Description: G2/M cell cycle arrest in HeLa, late-stage follow-up, mechanism study for Wee1 degradation inhibitor project, FACS, panel member Wee1 Degradation (AID 2088).
Test [15] has as its target G2/mitotic-specific cyclin-B1 (Homo sapiens, UniProt P14635). Description: G2/M cell cycle arrest in HeLa, late-stage follow-up, mechanism study for Wee1 degradation inhibitor project, FACS, panel member Cyclin B Degradation (AID 2088).
Test [16] concerns BJ. The experiment in a line: cytotoxicity toward BJ-TERT fibroblasts, dose response, cell-based, RAS-independent, luminescence (AID 1933). The class given is functional. To be noted: Homo sapiens.
In test [17] the test system is BJ. Description: cells. In kind it is functional, cell-based. To be noted: Homo sapiens.
Test [18] deals with BJ. Description: cytotoxicity toward BJ-TERT-LT-ST fibroblasts, dose response, cell-based, RAS-independent, luminescence (AID 1935).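 Note: BJ fibroblasts immortalized with TERT plus LT and ST oncogenes.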 In kind it is functional. To be noted: Homo sapiens.
Test [19] in a line: cytotoxicity toward DRD oncogenic fibroblasts, dose response, cell-based, non-viral oncogenic, luminescence (AID 1934). The class given is functional. The settings on record: Homo sapiens.
In test [20] the test system is Saccharomyces cerevisiae. Description: NALP1 inhibitor project selectivity study, Caspase-1/ASC signal blockade IC50 in S. cerevisiae (AID 488863). In kind it is functional, organism-based.
Test [21] has as its target NACHT, LRR and PYD domains-containing protein 1 (Homo sapiens, UniProt Q9C000). Description: NALP1 inhibitors in yeast, dose response, luminescent (AID 488860). The class given is functional.

Chain of G2/mitotic-specific cyclin-B1 (P14635 whole entry): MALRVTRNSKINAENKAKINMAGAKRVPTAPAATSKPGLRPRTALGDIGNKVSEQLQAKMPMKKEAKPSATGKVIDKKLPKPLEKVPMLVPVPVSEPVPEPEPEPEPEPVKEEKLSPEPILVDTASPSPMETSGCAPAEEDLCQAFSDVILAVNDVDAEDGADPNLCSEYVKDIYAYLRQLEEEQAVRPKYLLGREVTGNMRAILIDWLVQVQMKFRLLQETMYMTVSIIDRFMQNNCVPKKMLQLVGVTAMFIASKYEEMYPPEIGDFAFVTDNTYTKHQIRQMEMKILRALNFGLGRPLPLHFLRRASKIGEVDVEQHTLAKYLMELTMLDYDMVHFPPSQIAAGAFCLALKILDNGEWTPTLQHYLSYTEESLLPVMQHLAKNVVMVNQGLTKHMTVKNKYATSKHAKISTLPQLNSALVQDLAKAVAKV
Chain of Wee1-like protein kinase (P30291 whole entry): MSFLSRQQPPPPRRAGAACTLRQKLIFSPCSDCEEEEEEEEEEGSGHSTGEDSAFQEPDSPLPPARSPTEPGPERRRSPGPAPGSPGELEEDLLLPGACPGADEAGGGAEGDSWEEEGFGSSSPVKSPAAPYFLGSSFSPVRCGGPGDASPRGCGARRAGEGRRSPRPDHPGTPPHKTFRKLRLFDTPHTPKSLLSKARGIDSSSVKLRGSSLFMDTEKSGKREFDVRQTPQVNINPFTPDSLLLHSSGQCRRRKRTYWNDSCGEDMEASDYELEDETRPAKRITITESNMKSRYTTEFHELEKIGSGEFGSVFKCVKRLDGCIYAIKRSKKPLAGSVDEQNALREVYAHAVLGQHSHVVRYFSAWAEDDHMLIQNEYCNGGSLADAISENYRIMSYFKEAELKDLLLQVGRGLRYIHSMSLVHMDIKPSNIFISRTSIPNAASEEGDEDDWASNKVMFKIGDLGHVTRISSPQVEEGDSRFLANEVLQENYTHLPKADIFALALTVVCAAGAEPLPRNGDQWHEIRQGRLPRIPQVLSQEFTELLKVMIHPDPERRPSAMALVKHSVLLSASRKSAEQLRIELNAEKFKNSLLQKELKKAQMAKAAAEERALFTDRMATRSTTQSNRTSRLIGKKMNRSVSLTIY
Chain of NACHT, LRR and PYD domains-containing protein 1 (Q9C000 1-1212 limits assumed): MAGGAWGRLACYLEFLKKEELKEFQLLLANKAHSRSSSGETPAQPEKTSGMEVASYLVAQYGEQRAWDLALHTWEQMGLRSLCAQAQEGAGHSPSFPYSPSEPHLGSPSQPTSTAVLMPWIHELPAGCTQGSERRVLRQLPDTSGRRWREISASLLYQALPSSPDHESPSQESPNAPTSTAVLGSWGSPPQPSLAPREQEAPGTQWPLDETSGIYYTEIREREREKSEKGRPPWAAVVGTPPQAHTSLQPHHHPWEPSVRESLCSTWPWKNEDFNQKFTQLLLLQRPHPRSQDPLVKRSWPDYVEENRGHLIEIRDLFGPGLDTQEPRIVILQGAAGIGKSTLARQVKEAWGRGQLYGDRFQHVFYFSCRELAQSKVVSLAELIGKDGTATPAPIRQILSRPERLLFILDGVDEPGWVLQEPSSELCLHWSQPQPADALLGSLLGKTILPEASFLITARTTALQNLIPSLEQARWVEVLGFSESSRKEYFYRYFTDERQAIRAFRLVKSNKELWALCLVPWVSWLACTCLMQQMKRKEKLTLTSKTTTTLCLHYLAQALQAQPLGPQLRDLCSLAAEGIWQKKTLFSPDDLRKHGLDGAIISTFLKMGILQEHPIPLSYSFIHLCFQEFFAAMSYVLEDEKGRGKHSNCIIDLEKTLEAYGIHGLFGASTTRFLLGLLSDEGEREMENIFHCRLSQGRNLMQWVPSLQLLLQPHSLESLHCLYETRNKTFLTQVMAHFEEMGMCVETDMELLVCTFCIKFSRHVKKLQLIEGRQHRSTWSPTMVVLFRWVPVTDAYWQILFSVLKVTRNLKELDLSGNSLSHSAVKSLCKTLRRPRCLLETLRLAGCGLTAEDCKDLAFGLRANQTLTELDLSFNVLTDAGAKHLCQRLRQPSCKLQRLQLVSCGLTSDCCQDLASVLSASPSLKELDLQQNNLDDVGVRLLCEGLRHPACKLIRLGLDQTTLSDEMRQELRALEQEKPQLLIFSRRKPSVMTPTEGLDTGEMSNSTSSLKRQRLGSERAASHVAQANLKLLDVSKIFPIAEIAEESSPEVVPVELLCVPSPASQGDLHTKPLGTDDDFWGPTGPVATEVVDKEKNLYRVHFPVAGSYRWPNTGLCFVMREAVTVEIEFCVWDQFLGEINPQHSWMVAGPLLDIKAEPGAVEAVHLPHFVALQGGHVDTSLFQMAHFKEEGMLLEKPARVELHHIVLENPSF
Chain of NACHT, LRR and PYD domains-containing protein 1 (Q9C000 1213-1473 limits assumed): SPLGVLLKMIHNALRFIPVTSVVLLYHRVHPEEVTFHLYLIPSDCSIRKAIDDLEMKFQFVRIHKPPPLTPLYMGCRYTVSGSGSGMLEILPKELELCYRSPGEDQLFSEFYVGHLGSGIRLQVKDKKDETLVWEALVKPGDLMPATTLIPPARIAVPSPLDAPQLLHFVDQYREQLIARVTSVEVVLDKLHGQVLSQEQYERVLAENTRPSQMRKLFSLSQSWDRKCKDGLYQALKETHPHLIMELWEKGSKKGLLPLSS
Chain of Metabotropic glutamate receptor 4 (P31423 whole entry): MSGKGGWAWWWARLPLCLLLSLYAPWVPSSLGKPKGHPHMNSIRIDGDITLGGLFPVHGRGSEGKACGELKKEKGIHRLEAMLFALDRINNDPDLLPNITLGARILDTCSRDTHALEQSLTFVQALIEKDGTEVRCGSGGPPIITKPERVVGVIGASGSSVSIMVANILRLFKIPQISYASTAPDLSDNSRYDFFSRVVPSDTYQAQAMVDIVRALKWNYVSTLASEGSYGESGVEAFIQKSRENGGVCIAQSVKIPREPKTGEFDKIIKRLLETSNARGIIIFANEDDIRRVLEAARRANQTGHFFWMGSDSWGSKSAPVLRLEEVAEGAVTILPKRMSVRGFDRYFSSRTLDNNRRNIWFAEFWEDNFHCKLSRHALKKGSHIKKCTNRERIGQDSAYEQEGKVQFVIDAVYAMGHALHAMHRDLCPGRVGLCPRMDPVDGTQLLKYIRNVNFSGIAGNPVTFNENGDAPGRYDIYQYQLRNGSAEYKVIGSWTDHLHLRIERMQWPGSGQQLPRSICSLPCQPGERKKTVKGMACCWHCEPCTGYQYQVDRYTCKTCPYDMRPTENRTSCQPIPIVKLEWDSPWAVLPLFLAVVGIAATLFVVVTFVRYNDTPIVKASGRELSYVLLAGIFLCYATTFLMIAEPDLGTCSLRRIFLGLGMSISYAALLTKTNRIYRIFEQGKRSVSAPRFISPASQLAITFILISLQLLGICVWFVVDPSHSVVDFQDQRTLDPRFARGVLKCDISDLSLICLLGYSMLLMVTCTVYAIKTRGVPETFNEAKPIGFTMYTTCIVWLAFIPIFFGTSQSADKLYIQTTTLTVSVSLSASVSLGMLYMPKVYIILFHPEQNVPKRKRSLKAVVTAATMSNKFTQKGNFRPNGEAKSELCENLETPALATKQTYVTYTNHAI
Chain of ORF 73 (O40947 whole entry): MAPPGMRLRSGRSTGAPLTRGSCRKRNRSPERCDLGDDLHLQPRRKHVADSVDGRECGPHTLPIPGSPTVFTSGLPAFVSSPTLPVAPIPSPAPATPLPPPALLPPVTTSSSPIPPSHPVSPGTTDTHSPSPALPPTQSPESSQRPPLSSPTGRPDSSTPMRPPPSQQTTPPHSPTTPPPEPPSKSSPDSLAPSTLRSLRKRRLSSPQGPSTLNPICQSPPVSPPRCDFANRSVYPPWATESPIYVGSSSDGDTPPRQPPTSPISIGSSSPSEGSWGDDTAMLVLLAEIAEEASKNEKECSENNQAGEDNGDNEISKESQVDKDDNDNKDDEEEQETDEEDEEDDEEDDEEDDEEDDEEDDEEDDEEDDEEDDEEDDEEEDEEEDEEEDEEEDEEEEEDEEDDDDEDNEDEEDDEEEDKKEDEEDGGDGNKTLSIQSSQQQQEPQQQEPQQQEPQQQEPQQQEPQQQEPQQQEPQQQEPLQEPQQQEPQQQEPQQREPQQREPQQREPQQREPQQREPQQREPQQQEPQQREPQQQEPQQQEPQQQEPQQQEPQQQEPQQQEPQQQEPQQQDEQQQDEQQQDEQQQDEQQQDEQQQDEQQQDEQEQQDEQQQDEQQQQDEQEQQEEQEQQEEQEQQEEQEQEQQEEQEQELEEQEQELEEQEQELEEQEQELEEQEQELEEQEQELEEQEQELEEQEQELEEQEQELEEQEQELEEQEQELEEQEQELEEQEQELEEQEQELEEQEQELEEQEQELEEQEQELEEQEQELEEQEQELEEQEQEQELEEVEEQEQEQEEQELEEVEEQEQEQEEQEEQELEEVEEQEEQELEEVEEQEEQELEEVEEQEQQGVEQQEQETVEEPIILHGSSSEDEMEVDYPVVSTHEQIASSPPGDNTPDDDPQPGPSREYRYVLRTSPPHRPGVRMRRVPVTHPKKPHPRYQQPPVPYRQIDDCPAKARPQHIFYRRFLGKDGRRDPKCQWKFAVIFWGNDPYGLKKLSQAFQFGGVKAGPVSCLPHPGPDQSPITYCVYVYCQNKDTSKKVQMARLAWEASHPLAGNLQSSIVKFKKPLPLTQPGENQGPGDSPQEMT

Consider `Cc1c(CCC(=O)O)c(=O)oc2c(C)c3occ(-c4ccc(Cl)cc4)c3cc12`, for which the IC50 was 15.1 µM (active) in test [1]; 42.2 µM (active) in [3]; 4.89 µM (active) in test [4]; 19.1 µM (active) in test [5]; 8.61 µM (active) in test [6]; 22.4 µM (inactive) in test [7]. Moreover, the 50% cytotoxic concentration (CC50) in test [2] is > 40 µM (active).
`O=C(OCCN1C(=O)c2cccc3c(N4CCOCC4)ccc(c23)C1=O)c1ccc(Cl)cc1`: the EC50 was > 350 µM (not active) in test [8], > 350 µM (not active) in [9] and 5.89 µM (active) in test [12]. The AC50 in [10] was 29.3 µM (active). In addition, the IC50 in test [11] is > 80 µM (inactive).
Consider `CC1(c2ccccc2)CC(=O)N(c2ccc(NC(=O)c3ccccn3)cc2Cl)C1=O` (stereo unspecified), for which, in [13], the EC50 was 0.54 µM (active).
Regarding `Cc1cc(=O)[nH]c(-n2nc(C)cc2NC(=O)CCc2ccccc2)n1`, the EC50 was > 16.6 µM (active) in [14] and > 49.7 µM (inactive) in test [15].
`CCN1/C(=C/C=C/C=C/c2sc3ccccc3[n+]2CC)Sc2ccccc21` [DITHIAZANINE IODIDE]: the EC50 in test [16] was 1.7 µM (inconclusive); in [17], 2.04 µM (inconclusive); in test [18], 3 µM (inconclusive); in test [19] it was 1.68 µM (inconclusive). Further, the IC50 in test [20] is > 100 µM (inactive); in test [21] it was 19.5 µM (active).

Values taken from ChEMBL document CHEMBL1201862, “PubChem BioAssay data set” (2004).
